Results: patent publication US11866720B2, “Transgenic or non-transgenic plants with mutated protoporphyrinogen oxidase having increased tolerance to herbicides” (priority 2013, dated 2024)
Changes are numbered by the printed parent chain. “And” between values parts separate entries of the source, which are not always exact repeats. Equal entries are not always repeated.

Columns and labels:
Assay in all cases: biochemical
[1] = biological target: recombinant wildtype and mutated PPO (Amaranthus PPO2: PPX2L_WC SEQ ID NO 2, PPX2L_AC SEQ ID NO 4, dG210 SEQ ID NO 6 & 8) (Amaranthus tuberculatus, UniProt Q0NZW9, D133A/F420M/R128M); settings: IC50 (M)
[2] = biological target: recombinant wildtype and mutated PPO (Amaranthus PPO2: PPX2L_WC SEQ ID NO 2, PPX2L_AC SEQ ID NO 4, dG210 SEQ ID NO 6 & 8) (Amaranthus tuberculatus, UniProt Q0NZW9, D133A/F420V/R128H); settings: IC50 (M)
[3] = biological target: recombinant wildtype and mutated PPO (Amaranthus PPO2: PPX2L_WC SEQ ID NO 2, PPX2L_AC SEQ ID NO 4, dG210 SEQ ID NO 6 & 8) (Amaranthus tuberculatus, UniProt Q0NZW9, D133A/F420L/R128C); settings: IC50 (M)
[4] = biological target: T1, recombinant wildtype and mutated PPO (Amaranthus PPO2: PPX2L_WC SEQ ID NO 2, PPX2L_AC SEQ ID NO 4, dG210 SEQ ID NO 6 & 8) (Amaranthus tuberculatus, UniProt Q0NZW9, D133A/F420M/R128T); settings: IC50 (M)
T1 sequence (Q0NZW9 1-534 R128T/D133A/F420M): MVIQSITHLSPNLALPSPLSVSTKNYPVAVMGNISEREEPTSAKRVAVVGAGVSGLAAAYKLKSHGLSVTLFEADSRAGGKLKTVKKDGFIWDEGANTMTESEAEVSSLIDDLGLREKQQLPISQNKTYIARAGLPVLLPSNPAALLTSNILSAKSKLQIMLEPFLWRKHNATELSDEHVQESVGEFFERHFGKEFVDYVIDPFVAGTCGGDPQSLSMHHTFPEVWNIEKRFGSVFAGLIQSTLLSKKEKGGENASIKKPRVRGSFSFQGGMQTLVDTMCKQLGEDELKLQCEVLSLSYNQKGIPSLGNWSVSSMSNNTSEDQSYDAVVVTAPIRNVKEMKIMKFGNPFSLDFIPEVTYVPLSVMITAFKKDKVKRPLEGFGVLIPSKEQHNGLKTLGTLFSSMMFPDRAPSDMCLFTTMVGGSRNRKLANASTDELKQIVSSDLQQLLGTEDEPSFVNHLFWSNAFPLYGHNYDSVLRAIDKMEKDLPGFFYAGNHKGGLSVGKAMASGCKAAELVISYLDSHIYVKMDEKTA

[5] = biological target: T2, recombinant wildtype and mutated PPO (Amaranthus PPO2: PPX2L_WC SEQ ID NO 2, PPX2L_AC SEQ ID NO 4, dG210 SEQ ID NO 6 & 8) (Amaranthus tuberculatus, UniProt Q0NZW9, D133A/F420M/R128Y); settings: IC50 (M)
T2 sequence (Q0NZW9 1-534 R128Y/D133A/F420M): T1 sequence (Q0NZW9 1-534 R128T/D133A/F420M) with T128Y

[6] = biological target: T3, recombinant wildtype and mutated PPO (Amaranthus PPO2: PPX2L_WC SEQ ID NO 2, PPX2L_AC SEQ ID NO 4, dG210 SEQ ID NO 6 & 8) (Amaranthus tuberculatus, UniProt Q0NZW9, D133A/F420V/R128I); settings: IC50 (M)
T3 sequence (Q0NZW9 1-534 R128I/D133A/F420V): T1 sequence (Q0NZW9 1-534 R128T/D133A/F420M) with T128I, M420V

[7] = biological target: T4, recombinant wildtype and mutated PPO (Amaranthus PPO2: PPX2L_WC SEQ ID NO 2, PPX2L_AC SEQ ID NO 4, dG210 SEQ ID NO 6 & 8) (Amaranthus tuberculatus, UniProt Q0NZW9)
T4 sequence (Q0NZW9 1-534): T1 sequence (Q0NZW9 1-534 R128T/D133A/F420M) with T128R, A133D, M420F

Sequence of recombinant wildtype and mutated PPO (Amaranthus PPO2: PPX2L_WC SEQ ID NO 2, PPX2L_AC SEQ ID NO 4, dG210 SEQ ID NO 6 & 8) (Amaranthus tuberculatus, UniProt Q0NZW9, D133A/F420M/R128M) (Q0NZW9 1-534 R128M/D133A/F420M): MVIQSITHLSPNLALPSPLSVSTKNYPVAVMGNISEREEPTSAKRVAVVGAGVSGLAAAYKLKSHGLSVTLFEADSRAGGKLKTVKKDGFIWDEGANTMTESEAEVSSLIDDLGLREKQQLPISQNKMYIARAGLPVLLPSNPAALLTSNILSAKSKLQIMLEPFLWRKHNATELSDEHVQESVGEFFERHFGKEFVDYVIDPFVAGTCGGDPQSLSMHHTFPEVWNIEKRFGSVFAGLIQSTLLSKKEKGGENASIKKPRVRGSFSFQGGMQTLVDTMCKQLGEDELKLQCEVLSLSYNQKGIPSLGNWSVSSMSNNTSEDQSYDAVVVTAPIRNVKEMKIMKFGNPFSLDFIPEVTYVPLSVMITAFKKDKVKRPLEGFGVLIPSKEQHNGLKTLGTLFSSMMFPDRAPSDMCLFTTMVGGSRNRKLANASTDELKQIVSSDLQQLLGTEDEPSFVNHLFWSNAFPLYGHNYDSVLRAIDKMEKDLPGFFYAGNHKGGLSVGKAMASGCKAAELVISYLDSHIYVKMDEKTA
Sequence of recombinant wildtype and mutated PPO (Amaranthus PPO2: PPX2L_WC SEQ ID NO 2, PPX2L_AC SEQ ID NO 4, dG210 SEQ ID NO 6 & 8) (Amaranthus tuberculatus, UniProt Q0NZW9, D133A/F420V/R128H) (Q0NZW9 1-534 R128H/D133A/F420V): as the sequence (Q0NZW9 1-534 R128M/D133A/F420M) above, with M128H, M420V counted along it
Sequence of recombinant wildtype and mutated PPO (Amaranthus PPO2: PPX2L_WC SEQ ID NO 2, PPX2L_AC SEQ ID NO 4, dG210 SEQ ID NO 6 & 8) (Amaranthus tuberculatus, UniProt Q0NZW9, D133A/F420L/R128C) (Q0NZW9 1-534 R128C/D133A/F420L): as the sequence (Q0NZW9 1-534 R128M/D133A/F420M) above, with M128C, M420L counted along it

Structure (SMILES)	IC50 [1]	IC50 [2] [M]	IC50 [3]	IC50 [4] [M]	IC50 [5]	IC50 [6]	IC50 [7] [nM]
C#CCN1C(=O)C(F)(F)Oc2cc(F)c(-n3c(=O)n(C)c(=S)n(C)c3=O)cc21	7.69e-08 M and 7.07e-08 M and 4.84e-08 M	7.63e-08	1e-07 M and 1.83e-07 M	4.33e-08	2.85e-07 M and 1.02e-07 M	2.14e-07 M and 3.15e-07 M	
C#CCN1C(=O)C(F)(F)Oc2cc(F)c(-n3c(=O)cc(C(F)(F)F)n(C)c3=O)cc21	4.94e-08 M		6.72e-08 M		1.13e-07 M	9.01e-08 M	0.315
C#CCN1C(=O)C(F)(F)Oc2cc(F)c(N3C(=O)C4=C(CCCC4)C3=O)cc21	≥ 1e-05 M		≥ 1e-05 M		≥ 1e-05 M	4.32e-06 M	0.146
COC(Oc1ccccc1Oc1cc(-n2c(=O)cc(C(F)(F)F)n(C)c2=O)c(F)cc1Cl)C(=O)OC1CCCCC1 (stereo not drawn)	3.22e-08 M	9.06e-08		1.17e-07		3.78e-08 M	
COC(=O)C(OC)Oc1ccccc1Oc1cc(-n2c(=O)cc(C(F)(F)F)n(C)c2=O)c(F)cc1Cl (stereo not drawn)	1.62e-08 M	6.93e-09		2.79e-08		1.71e-08 M	0.411
CCOC(=O)COc1ncccc1Oc1cc(-n2c(=O)cc(C(F)(F)F)n(C)c2=O)c(F)cc1Cl [A.13, ethyl [3-[2-chloro-4-fluoro-5-(1-methyl-6-trifluoromethyl-2,4-dioxo-1,2,3,4-tetrahydropyrimidin-3-yl)phenoxy]-2-pyridyloxy]acetate]	4.83e-08 M		6.81e-07 M		8.92e-08 M	4.38e-08 M	
O=C(O)c1cc(Oc2ccc(C(F)(F)F)cc2Cl)ccc1[N+](=O)[O-] [ACIFLUORFEN]	≥ 1e-05 M		≥ 1e-05 M		≥ 1e-05 M	1.21e-05 M	
C=CCOC(=O)C(C)(C)OC(=O)c1cc(-n2c(=O)cc(C(F)(F)F)n(C)c2=O)ccc1Cl [BUTAFENACIL]	4.38e-08 M		1.1e-07 M		5.04e-08 M	2.56e-08 M	
CCOC(=O)C(Cl)Cc1cc(-n2nc(C)n(C(F)F)c2=O)c(F)cc1Cl (stereo not drawn) [CARFENTRAZONE-ETHYL]	7.86e-08 M		3.08e-07 M		8.52e-08 M	2.07e-07 M	
C#CCN1C(=O)COc2cc(F)c(N3C(=O)C4=C(CCCC4)C3=O)cc21 [Flumioxazin, flumioxazin]	≥ 1e-05 M		≥ 1e-05 M		≥ 1e-05 M	≥ 1e-05 M	
CS(=O)(=O)NC(=O)c1cc(Oc2ccc(C(F)(F)F)cc2Cl)ccc1[N+](=O)[O-] [Fomesafen, fomesafen]	≥ 1e-05 M		≥ 1e-05 M		≥ 1e-05 M	2.79e-06 M	
CCOC(=O)C(C)OC(=O)c1cc(Oc2ccc(C(F)(F)F)cc2Cl)ccc1[N+](=O)[O-] (stereo not drawn) [Lactofen, lactofen]	1.31e-07 M		1.42e-07 M		1.43e-07 M	1.4e-08 M	
CCOc1cc(Oc2ccc(C(F)(F)F)cc2Cl)ccc1[N+](=O)[O-] [OXIFLUORFEN]	7.36e-07 M		1.49e-06 M		1.13e-06 M	1.98e-07 M	
